Measurements reported in patent US8961930B2, “Isatin derivatives for use as in vivo imaging agents” (Imperial Innovations Limited, priority 2008, dated 2015).
Several values for one entry are separate records, joined by “and”; a condition that tells them apart may be missing. Identical values can stand only once.

Legend:
[1] = Log P determination, octanol-water partition coefficient; assay type: physicochemical; settings: read-out: Measured Log P
Procedure: Lipophilicity was assessed by measuring the octanol-water partition coefficient using the method of Barthel et al^18. Briefly, [^18F]11 (˜180 μCi in 25 μL ethanol) was diluted to a final volume of 100 μL using water to give the stock solution. Aliquots of stock solution (10 μL) were added to water (490 μL) and octan-1-ol (Aldrich anhydrous grade) (500 μL). The solutions were then shaken vigorously for 10 min then centrifuged (13201 g, 20° C., 30 min) Following centrifugation portions (200 μL) of the water and octanol layers were carefully removed and placed analyzed on a Cobra II Auto-Gamma counter (Packard Instruments, Meriden, Conn., USA) and compared. The octanol-water partition coefficient was obtained by dividing the octanol containing radioactivity by the water containing radioactivity. Log P was determined to be 1.61, as indicated in footnote c of Table 1 above.

[2] = In vivo metabolism studies, radio-HPLC of plasma, liver and urine; set-up: species or system C3H/hej mice; settings: for Recovery (plasma): extraction efficiency; for Parent (liver) / Recovery (liver): individual results from two samples
Procedure: [^18F]11 was injected intravenously into tumor-bearing mice and its tissue distribution was measured in selected tissues at 2, 15 and 60 min after injection. […] Furthermore, the in vivo metabolic stability of the radiotracer was determined from plasma and liver samples and, for [^18F]11, in urine samples.
In vivo metabolism studies were also performed in C3H/hej mice. […] Plasma, liver and urine samples were snap-frozen in liquid nitrogen and kept in pre-weighed scintillation counting tubes on dry ice prior to analysis.
Immediately prior to extraction the samples were thawed and placed on ice. For extraction, ice cold acetonitrile (1.5 mL) was added to plasma (0.2 mL); S9 incubation samples (3 mL) containing acetonitrile were also analysed. Each mixture was centrifuged (15493×g, 4° C., 3 min) and the resulting supernatant was evaporated to dryness under vacuum at 40° C. using a rotary evaporator. Liver samples were homogenized with ice cold acetonitrile (1.5 mL) using an IKA Ultra-Turrax T-25 homogeniser prior to centrifugation. The residues were then re-suspended in HPLC mobile phase (1.2 mL) and filtered through a Minisart hydrophilic syringe filter (0.2 μm) (Sartorius, Goettingen, Germany). Urine samples were diluted with HPLC mobile phase, filtered as above. The samples (1 mL) were then analyzed by radio-HPLC on an Agilent 1100 series HPLC system (Agilent Technologies, Stockport, UK) equipped with a γ-RAM Model 3 gamma-detector and the Laura software (IN/US Systems inc., Florida, USA).
The stationary phase comprised of a Waters μBondapak C18 reverse-phase column (300×7.8 mm). […] Furthermore, to assess the fraction of [^18F]9-derived radioactivity associated with the plasma and liver pellets after extraction versus that remaining in the HPLC injectate, the total volume of HPLC injectate was recorded and an aliquot (0.1 mL) removed for counting. The radioactivity in the 0.1 mL aliquot and the pellet were then analyzed by gamma counting (Packard Instruments).

[3] = system: PEO1 cells; test: In vitro [^18F]11 uptake in PEO1 cells; assay type: cell-based, human; settings: 50 μg/mL CDDP, 60 min uptake
Text: The human ovarian carcinoma cell lines PEO1/4 were established and characterised as described in Wolf C. R. et al.^22 and Langdon S. P. et al^23. Briefly, PEO1/4 cells were derived from the malignant ascites of a patient with a recurrent mucinous ovarian adenocarcinoma, before (PEO1) and after (PEO4) the onset of a clinical resistance to cisplatin chemotherapy in this patient. The radiation-induced murine fibrosarcoma (RIF-1) tumour cell line was originally characterised by Twentyman P. R. et al.^20. The LNM35 tumour cells are a highly lymphogenous metastatic subline of the human large pulmonary carcinoma NCI-H460 cell line, as described in Kozaki K. et al.^24. […]
Cells were plated in triplicate in 12-well plates 2 or 3 days prior to the experiments and treated with the antineoplastic platinum-derived drug Cisplatin, 5-FU, the protein synthesis inhibitor cycloheximide (CHX) or the topoisomerase inhibitor etoposide (VP-16) (Sigma, UK) or corresponding vehicle at the indicated concentration and time. […] 260 μL of each sample were transferred in counting tubes and Fluorine-18 radioactivity was immediately determined using a Packard Cobra II gamma counter (Perkin Elmer, UK). […] BCA Protein assay (Pierce, UK) was performed for all samples and datas are normalized and expressed as CCPMA or RLU (Relative Light Unit)/mg of protein.

Q: For O=C1C(=O)N(Cc2cn(CC[18F])nn2)c2ccc(S(=O)(=O)N3CCC[C@H]3COc3ccc(F)cc3F)cc21 [[^18F]11, (S)-1-((1-(2-Fluoroethyl)-1H-[1,2,3]-triazol-4-yl)methyl)-5-(2(2,4-difluorophenoxymethyl)-pyrrolidine-1-sulfonyl)isatin], which logP at 10 min [1] is on record?
A: 1.61

Q: What about the “Recovery (plasma)” value ([2]; 2 min) of the same compound?
A: 92.1 ± 3.4%

Q: What about the “Parent (liver)” value ([2]; 2 min) of the same compound?
A: 35.7% and 43.4%

Q: And the “Recovery (liver)” value ([2]; 2 min)?
A: 79.7% and 86.9%

Q: What about the “Parent (plasma)” value ([2]; 2 min after i.v. injection, mice, radio-HPLC) of the same compound?
A: 86.1 ± 3.7%

Q: What about the “Recovery (plasma)” value ([2]; 15 min) of the same compound?
A: 76.8 ± 5.2%

Q: What about the “Parent (liver)” value ([2]; 15 min) of the same compound?
A: 9.7% and 10.2%

Q: What about the “Recovery (liver)” value ([2]; 15 min) of the same compound?
A: 67.1% and 68.9%

Q: What about the “Parent (plasma)” value ([2]; 15 min after i.v. injection, mice, radio-HPLC) of the same compound?
A: 61.3 ± 5.9%

Q: And the “Recovery (plasma)” value ([2]; 60 min)?
A: 50.9 ± 3.7%

Q: What about the “Parent (liver)” value ([2]; 60 min) of the same compound?
A: 27.0% and 29.7%

Q: And the “Recovery (liver)” value ([2]; 60 min)?
A: 46.4% and 65.2%

Q: And the “Parent (plasma)” value ([2]; 60 min after i.v. injection, mice, radio-HPLC)?
A: 64.8 ± 7.0%

Q: And the “stability to metabolic degradation in vivo” value ([2]; radio-HPLC, plasma and liver, mice)?
A: relatively more stable to metabolic degradation than [^125I]14

Q: And the “[^18F]11 uptake in drug-treated cells compared to control” value [3]?
A: significantly increased
